For orientation: IC50 means the concentration that gives 50% inhibition.

The target in the first experiment is EBI2 (Homo sapiens, UniProt P32249). Kind of experiment: Cell-based luminescent assay (EBI2 modulation).
Sequence of EBI2 (P32249 whole entry): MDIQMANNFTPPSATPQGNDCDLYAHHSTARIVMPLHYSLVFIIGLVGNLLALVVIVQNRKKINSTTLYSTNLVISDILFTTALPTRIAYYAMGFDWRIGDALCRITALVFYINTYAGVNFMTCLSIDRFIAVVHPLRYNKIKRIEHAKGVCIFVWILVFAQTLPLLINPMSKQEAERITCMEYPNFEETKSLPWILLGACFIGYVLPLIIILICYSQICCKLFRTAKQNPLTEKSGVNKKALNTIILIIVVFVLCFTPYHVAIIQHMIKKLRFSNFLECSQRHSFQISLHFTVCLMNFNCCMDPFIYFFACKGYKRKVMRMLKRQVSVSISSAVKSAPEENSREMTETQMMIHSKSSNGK
Conditions: not given
Summed up: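 Cells plated overnight at 37° C, then exposed to compound at 4-5 uM final with 80 nM 7a,25-OHC agonist for 60 min at 37° C. Luminescence read after 60 min detection at 25° C in the dark; values normalized to neutral and stimulator controls and plate-pattern corrected.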
In turn, `O=C(/C=C/c1ccc(Br)cc1)N1CCN(Cc2ccc(Cl)cc2)CC1` [Compound D1, (E)-3-(4-bromophenyl)-1-(4-(4-chlorobenzyl)piperazin-1-yl) prop-2-en-1-one] displayed an IC50 of less than 100 nM.

Still in this experiment, the particulars now being: cell-based luminescence; 7a,25-OHC final assay concentration 80 nM; 60 minutes incubation; read-out: IC50.
As for `O=C(C#Cc1ccc(Cl)cc1)N1CCN(Cc2ccc(F)cc2C(F)(F)F)CC1` [Compound C435, 3-(4-chlorophenyl)-1-(4-{[4-fluoro-2-(trifluoromethyl)phenyl]methyl}piperazinyl)prop-2-yn-1-one], the IC50 was 100 to 500 nM.
Still for that read-out and setting: then `O=C(c1cc(Br)c[nH]1)N1CCN(C(c2ccccc2)c2ccccc2)CC1` [Compound C436, 4-(diphenylmethyl)piperazinyl 4-bromopyrrol-2-yl ketone], with 100 to 500 nM.
With `O=C(C#Cc1ccc(Cl)c(Cl)c1)N1CCN(C(=O)c2ccc(F)cc2C(F)(F)F)CC1` [Compound C437, 3-(3,4-dichlorophenyl)-1-(4-{[4-fluoro-2-(trifluoromethyl)phenyl]carbonyl}piperazinyl)prop-2-yn-1-one], the IC50 fell in the range of 100 to 500 nM.
The same measure, in the same setting: then `O=C(/C=C/c1ccc(Cl)cc1F)N1CCN(S(=O)(=O)c2ccccc2)CC1` [Compound C439, (2E)-3-(4-chloro-2-fluorophenyl)-1-[4-(phenylsulfonyl)piperazinyl]prop-2-en-1-one], with 100 to 500 nM; and `O=C(c1cccc(B(O)O)c1)N1CCN(C(=O)c2cc3cc(Cl)ccc3[nH]2)CC1` [Compound C440, 3-(4-(5-chloro-1H-indole-2-carbonyl)piperazine-1-carbonyl)phenylboronic acid], with 100 to 500 nM; and `O=C(/C=C/c1cc(Br)ccc1F)N1CCN(C(c2ccccc2)c2ccccc2)CC1` [Compound C441, (2E)-1-[4-(diphenylmethyl)piperazinyl]-3-(5-bromo-2-fluorophenyl)prop-2-en-1-one], with 100 to 500 nM.
Same read-out and setting: as for `Cc1ccccc1/C=C/C(=O)N1CCN(S(=O)(=O)c2ccc(Br)cc2)CC1` [Compound C442, (2E)-1-{4-[(4-bromophenyl)sulfonyl]piperazinyl}-3-(2-methylphenyl)prop-2-en-1-one], the figure is 100 to 500 nM; as for `O=C(c1cc2ccc(Cl)cc2[nH]1)N1CCN(C(=O)c2ccc(F)cc2C(F)(F)F)CC1` [Compound C447, 6-chloroindol-2-yl 4-{[4-fluoro-2-(trifluoromethyl)phenyl]carbonyl}piperazinyl ketone], 100 to 500 nM; as for `CC(C)(C)c1ccc(S(=O)(=O)N2CCN(C(=O)/C=C/c3ccc(Cl)cc3F)CC2)cc1` [Compound C448, (2E)-1-(4-{[4-(tert-butyl)phenyl]sulfonyl}piperazinyl)-3-(4-chloro-2-fluorophenyl)prop-2-en-1-one], 100 to 500 nM.
With `O=C(c1cc2cc(Cl)ccc2[nH]1)N1CCC(NC2CCCC2)CC1` [Compound C449, 5-chloroindol-2-yl 4-(cyclopentylamino)piperidyl ketone], the IC50 was 100 to 500 nM.
On the same count and under the same terms, as for `O=C(Nc1ccc(F)c(C(F)(F)F)c1)N1CCN(C(=O)c2cc3cc(Cl)ccc3[nH]2)CC1` [Compound C450, {4-[(5-chloroindol-2-yl)carbonyl]piperazinyl}-N-[4-fluoro-3-(trifluoromethyl)phenyl]carboxamide], the figure is 100 to 500 nM; as for `O=C(Nc1cccc(F)c1)N1CCN(C(=O)c2cc3cc(Cl)ccc3[nH]2)CC1` [Compound C451, {4-[(5-chloroindol-2-yl)carbonyl]piperazinyl}-N-(3-fluorophenyl)carboxamide], 100 to 500 nM; as for `O=C(c1cc2ccccc2o1)N1CCN(Cc2ccc3c(c2)OCO3)CC1` [Compound C452, 4-(2H-benzo[d]1,3-dioxolan-5-ylmethyl)piperazinyl benzo[d]furan-2-yl ketone], 100 to 500 nM.
On the same count and under the same terms, then `Cc1ccc(/C=C/C(=O)N2CCN(C(c3ccccc3)c3ccccc3)CC2)cc1` [Compound C453, (2E)-1-[4-(diphenylmethyl)piperazinyl]-3-(4-methylphenyl)prop-2-en-1-one], with 100 to 500 nM; and `O=C(c1cc2cc(Cl)ccc2[nH]1)N1CCN(S(=O)(=O)c2ccc(-c3ccccc3)cc2)CC1` [Compound C454, 5-chloroindol-2-yl 4-[(4-phenylphenyl)sulfonyl]piperazinyl ketone], with 100 to 500 nM.
Turning to `O=C(/C=C/c1ccccc1F)N1CCN(S(=O)(=O)c2ccc(Br)cc2)CC1` [Compound C455, (2E)-1-{4-[(4-bromophenyl)sulfonyl]piperazinyl}-3-(2-fluorophenyl)prop-2-en-1-one], the IC50 is 100 to 500 nM.
On the same count and under the same terms, as for `O=C(Nc1ccc(C(F)(F)F)cc1)N1CCN(C(=O)c2cc3cc(Cl)ccc3[nH]2)CC1` [Compound C456, {4-[(5-chloroindol-2-yl)carbonyl]piperazinyl}-N-[4-(trifluoromethyl)phenyl]carboxamide], the figure is 100 to 500 nM.
Same read-out and setting: then `O=C(C=Cc1ccc2c(c1)OCO2)N1CCN(C(=O)c2ccc(-c3nnn[nH]3)cc2)CC1` [Compound C457, 3-(2H-benzo[3,4-d]1,3-dioxolan-5-yl)-1-{4-[(4-(1H-1,2,3,4-tetraazol-5-yl)phenyl)carbonyl]piperazinyl}prop-2-en-1-one], with 100 to 500 nM; and `O=C(O)c1ccc(C(=O)N2CCN(C(=O)c3cc4cc(Cl)ccc4[nH]3)CC2)cc1` [Compound C460, 4-({4-[(5-chloroindol-2-yl)carbonyl]piperazinyl}carbonyl)benzoic acid], with 100 to 500 nM.
The same measure, in the same setting: as for `O=C(C#Cc1ccc(F)cc1)N1CCN(Cc2ccc(Cl)cc2)CC1` [Compound C461, 1-{4-[(4-chlorophenyl)methyl]piperazinyl}-3-(4-fluorophenyl)prop-2-yn-1-one], the figure is 100 to 500 nM; as for `O=C(C=Cc1ccc2c(c1)OCO2)N1CCN(Cc2ccc(F)cc2)CC1` [Compound C463, 3-(2H-benzo[3,4-d]1,3-dioxolan-5-yl)-1-{4-[(4-fluorophenyl)methyl]piperazinyl}prop-2-en-1-one], 100 to 500 nM.
On to `O=C(c1cnc2ccccc2c1)N1CCN(Cc2ccc(Cl)cc2)CC1` [Compound C464, 4-[(4-chlorophenyl)methyl]piperazinyl 3-quinolyl ketone], for which the concentration for half-maximal inhibition (IC50) fell in the range of 100 to 500 nM.
Take `Cc1nc2ccc(C(=O)N3CCN(C(c4ccccc4)c4ccccc4)CC3)cc2[nH]1` [Compound C465, 4-(diphenylmethyl)piperazinyl 2-methylbenzimidazol-5-yl ketone]: the IC50 fell in the range of 100 to 500 nM.
On the same count and under the same terms, as for `O=C(c1cc2ccccc2cn1)N1CCN(C(c2ccccc2)c2ccccc2)CC1` [Compound C468, 4-(diphenylmethyl)piperazinyl 3-isoquinolyl ketone], the figure is 100 to 500 nM; as for `O=C(C#Cc1ccccc1C(F)(F)F)N1CCN(Cc2ccc(Cl)cc2)CC1` [Compound C469, 1-{4-[(4-chlorophenyl)methyl]piperazinyl}-3-[2-(trifluoromethyl)phenyl]prop-2-yn-1-one], 100 to 500 nM; as for `O=C(c1cc2cc(Cl)ccc2[nH]1)N1CCN(c2ccc(F)cc2)CC1` [Compound C470, 5-chloroindol-2-yl 4-(4-fluorophenyl)piperazinyl ketone], 100 to 500 nM.
The same measure, in the same setting: then `O=C(c1ccc(Br)cc1)N1CCN(Cc2ccc(Cl)cc2)CC1` [Compound C472, 4-bromophenyl 4-[(4-chlorophenyl)methyl]piperazinyl ketone], with 100 to 500 nM.
Still for that read-out and setting: then `COc1ccc(CN2CCN(C(=O)C#Cc3cccc(Cl)c3)CC2)cc1` [Compound C473, 3-(3-chlorophenyl)-1-{4-[(4-methoxyphenyl)methyl]piperazinyl}prop-2-yn-1-one], with 100 to 500 nM; and `O=C(Nc1cccc(I)c1)N1CCN(C(=O)c2cc3cc(Cl)ccc3[nH]2)CC1` [Compound C474, {4-[(5-chloroindol-2-yl)carbonyl]piperazinyl}-N-(3-iodophenyl)carboxamide], with 100 to 500 nM.
As to `O=C(C#Cc1ccccc1C(F)(F)F)N1CCN(Cc2ccc(C(F)(F)F)cc2)CC1` [Compound C475, 3-[2-(trifluoromethyl)phenyl]-1-(4-{[4-(trifluoromethyl)phenyl]methyl}piperazinyl)prop-2-yn-1-one], the concentration for half-maximal inhibition (IC50) is 100 to 500 nM.
The same measure, in the same setting: then `O=C(c1cc2cc(Cl)ccc2[nH]1)N1CCN(c2ccccc2F)CC1` [Compound C476, 5-chloroindol-2-yl 4-(2-fluorophenyl)piperazinyl ketone], with 100 to 500 nM; and `O=C(Nc1ccc(F)cc1F)N1CCN(C(=O)c2cc3cc(Cl)ccc3[nH]2)CC1` [Compound C477, N-(2,4-difluorophenyl){4-[(5-chloroindol-2-yl)carbonyl]piperazinyl}carboxamide], with 100 to 500 nM; and `O=C(c1cc2ccccn2n1)N1CCN(C(c2ccccc2)c2ccccc2)CC1` [Compound C478, 4-(diphenylmethyl)piperazinyl 8-hydropyrazolo[1,5-a]pyridin-2-yl ketone], with 100 to 500 nM.
Take `O=C(C=Cc1ccc2c(c1)OCO2)N1CCN(C(=O)c2ccc(F)cc2C(F)(F)F)CC1` [Compound C479, 3-(2H-benzo[3,4-d]1,3-dioxolan-5-yl)-1-(4-{[4-fluoro-2-(trifluoromethyl)phenyl]carbonyl}piperazinyl)prop-2-en-1-one]: the IC50 lay in the range of 100 to 500 nM.
Same read-out and setting: as for `Cc1ccccc1/C=C/C(=O)N1CCN(S(=O)(=O)c2ccc(C(C)(C)C)cc2)CC1` [Compound C480, (2E)-1-(4-{[4-(tert-butyl)phenyl]sulfonyl}piperazinyl)-3-(2-methylphenyl)prop-2-en-1-one], the figure is 100 to 500 nM; as for `O=C(/C=C/c1ccc(Cl)c(Cl)c1)N1CCN(Cc2ccc(C(F)(F)F)cc2)CC1` [Compound D3, (2E)-3-(3,4-dichlorophenyl)-1-(4-{[4-(trifluoromethyl)phenyl]methyl}piperazinyl)prop-2-en-1-one], less than 100 nM; as for `Cc1cc(C)c(S(=O)(=O)N2CCN(C(=O)/C=C/c3ccc(Br)cc3)CC2)c(C)c1` [Compound E1, (2E)-3-(4-bromophenyl)-1-{4-[(2,4,6-trimethylphenyl)sulfonyl]piperazinyl} prop-2-en-1-one], less than 100 nM.

These data come from US9776979B2, “EBI2 modulators” (Sanford-Burnham Medical Research Institute, priority 2013, dated 2017).
